Source: publication PMC4357465, “Tool Compounds Robustly Increase Turnover of an Artificial Substrate by Glucocerebrosidase in Human Brain Lysates” (PLoS ONE, 2015)
Like-named read-outs stand apart in the source and are kept apart here.

Target: T1, purified human GBA1 (Homo sapiens, UniProt P04062)
T1 construct: purchased R&D Systems 7410-GH-10; host or cells: alternatively made in house: baculovirus (pFastBac-1), expressed in SF-9 or SF-21 cells, purified from conditioned media
T1 sequence (P04062 40-536): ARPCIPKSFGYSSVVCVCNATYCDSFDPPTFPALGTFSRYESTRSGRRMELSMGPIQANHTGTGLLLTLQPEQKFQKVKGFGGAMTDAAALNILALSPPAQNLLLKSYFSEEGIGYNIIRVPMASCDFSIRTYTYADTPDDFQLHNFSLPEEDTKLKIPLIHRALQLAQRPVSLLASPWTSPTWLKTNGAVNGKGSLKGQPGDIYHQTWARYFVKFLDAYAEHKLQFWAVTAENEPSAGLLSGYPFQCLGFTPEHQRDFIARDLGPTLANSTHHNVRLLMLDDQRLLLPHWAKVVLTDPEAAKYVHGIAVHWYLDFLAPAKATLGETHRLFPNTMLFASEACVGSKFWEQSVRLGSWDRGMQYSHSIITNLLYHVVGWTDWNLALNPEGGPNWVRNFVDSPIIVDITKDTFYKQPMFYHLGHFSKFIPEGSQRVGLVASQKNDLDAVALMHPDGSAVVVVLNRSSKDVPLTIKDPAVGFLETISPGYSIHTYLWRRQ
Test: GBA1 enzymatic cell-free assay, turnover of 4MUG
Format: biochemical
Experimental: After incubation, 100 μl of assay buffer was added to the plate. The assay buffer was composed of 0.1 M citric acid and 0.2 M sodium phosphate dibasic adjusted to pH = 5.4 unless stated otherwise (McIlvaine Buffer). […] For IC50 and EC50 experiments using compounds an assay buffer of pH 5.4 was used.
The substrate, 4-methylumbelliferyl β-D-glucopyranoside (4MUG, Sigma, M3633) was then added to the plate to a final concentration of 1.7 mM (25 μl). 4MUG was freshly solubilized in water at 37°C prior to each experiment. The recombinant protein, compound, assay buffer, and substrate were incubated at 37°C for 30 minutes.
The specific activity was calculated off the 4MU standard curve by converting the relative fluorescence units (RFUs) to the concentration of the fluorescent product (GraphPad Prism 5.1). This interpolated value was then used to calculate the specific activity of the recombinant protein which was expressed as nmol/hr/ng protein for recombinant protein and nmol/hr/mg for tissue lysates (GBA1 tissue assay). The standard curve was always diluted in the same assay buffer as the samples, including the same pH. For experiments testing activity of GBA1 at different pH, a standard curve for each pH condition was used to calculate specific activity. When testing different pH conditions, buffer solutions were adjusted to obtain the desired pH using the McIlvaine’s Buffer recipe, and the pH of the buffer was verified. All assay buffers used in the pH experiments contained sodium taurocholate to a final concentration of 3.1 mM.
In experiments directly comparing enzymatic activities of GBA1, GBA2 and GBA3 (S1 Fig., S2 Fig. c, d) the following conditions were used. […] A 10-fold intermediate solution of compound serial dilution was prepared in an assay buffer; half log dilutions were used. […] 2 mM solution of 4MUG was prepared in an assay buffer. To start the reaction, 4.5 μl/well of this solution was added to the enzyme plate and was incubated for 30 minutes at 37°C. To stop the reaction, a 1M glycine solution, adjusted to pH = 10 using 1M NaOH was used. […] To test the effect of sodium taurocholate (Sigma, T4009), the assay was performed using the same procedure described in this paragraph. The assay buffer contained either 0mM (same as above), 3 mM, 7 mM or 20 mM Sodium Taurocholate.

Row | Compound | inhibition of GBA1 activity (1 mM) | inhibition at 1 µM (read-out: inhibition of GBA1 activity) | inhibition at 1 µM (with sodium taurocholate, read-out: GBA1 % inhibition + NaTc) | inhibition at 1 µM (without sodium taurocholate, read-out: GBA1 % inhibition - NaTc)
1 | O[C@H]1[C@H](O)[C@@H](O)[C@@H]2O[C@@H]2[C@@H]1O [CBE] | more than 90% | – | – | –
2 | OC[C@H]1CNC[C@@H](O)[C@@H]1O [Isofagomine, isofagomine] | – | > 90% | 95.9 ± 3.2% | 92.1 ± 2.3%
